Data from patent US20090196871A1, “USE OF 4-PYRIDYLMETHYLPHTHALAZINES FOR CANCER TREATMENT” (priority 2001, published 2009).

Key:
[1] = tested on: metastatic renal cell carcinoma; experiment: Example 2: once-daily oral monotherapy in patients; assay type: in vivo, human; conditions: 300, 750 or 1000 mg/day once a day orally
Protocol: Ten patients having metastatic renal cell carcinoma, six of which had previous biologic therapy, are treated with 300, 750 or 1000 mg/day of 1-(4-chloroanilino)-4-(4-pyridyl-methyl)phthalazine administered once a day orally. Seven of the ten patients maintain stable disease for a median of 3 months.

[2] = Example 3: pharmacokinetic study, twice-daily dosing
Protocol: (§1) The patients are monitored by dynamic contrast enhanced magnetic resonance imaging (DCE-MRI) of tumors to provide a measure of the bi-dimensional transfer constant (Ki) prior to treatment, on day 2 and after every 28 day cycle. In addition, tumor volume is measured by magnetic resonance imaging every 28 days, and full pharmacokinetic profiles are obtained on days 1 and 28.

[3] = tested on: advanced solid tumors; experiment: Example 3: twice-daily oral dosing, safety and DCE-MRI of tumors
Protocol: as §1

[4] = clinical; conditions: human, plasma, po
[5] = clinical; conditions: human, in vivo, po
[6] = tested on: tumor vascular permeability; experiment: Studies in humans (general statement); set-up: species or system human; conditions: in vivo
[7] = tested on: metastatic colorectal cancer; experiment: Example 1: combination with oxaplatin/folinic acid/5-fluorouracil chemotherapy in patients; assay type: in vivo, human
Protocol: 15 Patients with histologically confirmed metastatic colorectal cancer seven of which had previously received adjuvant chemotherapy are treated with a combination of 1-(4-chloro-anilino)-4-(4-pyridylmethyl)phthalazine and a chemotherapy regimen. The chemotherapy regimen is 85 mg/m^2 of oxaplatin on day 1, 200 mg/m^2 of folinic acid given as a 2 hour infusion on days 1 and 2, and S-fluorouracil administered as a bolus at a dose of 400 mg/m^2 followed by 600 mg/m^2 over 22 hours on days 1 and 2. The chemotherapy regimen is given every 14 days. […] The treatment is well-tolerated. […] Stable diseases are observed in 2 patients, minor responses in 3 patients and partial responses in 8 patients.

[8] = tested on: advanced solid tumors; experiment: Example 4: once-daily oral dosing, Phase I, DCE-MRI, plasma VEGF, toxicity
[9] = among patients on 300, 500 and 1000 mg daily doses, twice daily
[10] = combination with chemotherapy, of 15 patients

With Clc1ccc(Nc2nnc(Cc3ccncc3)c3ccccc23)cc1 the “median duration of stable disease” value [1] was 3 months, the “patients maintaining stable disease” value ([1]; of ten patients) was “Seven” and the “area under the curve (AUC)” value ([2]; 300 mg total daily dose) was 82 ng·mL·h. For the same compound, the “area under the curve (AUC)” value ([2]; 500 mg total daily dose) was 46 ng·mL·h, the “area under the curve (AUC)” value ([2]; 1000 mg total daily dose) was 370 ng·mL·h and the “grade 1 lethargy” value [3, 9] was “one”. The “grade 2 lightheadedness” value [3, 9] was 4 patients, the “transient grade 3 elevations of liver transaminases” value [3, 9] was 2 patients and the “biological effect indicated by the study data” value ([3]; twice daily oral) was “reducing tumor perfusion/vascular permeability and slowing tumor growth”. The “tolerability / drug-related SAEs” value ([3]; twice daily oral, total daily doses 300-2000 mg) was “well tolerated with no drug-related SAEs”, the AUC [4] was about 114 µM·h and the Tmax [5] was 1 to 2.5 h. The “decrease of systemic exposure (AUC) at steady-state compared to day 1” value [5] was “approximately 30%”, the “dose up to which dose proportional increase in exposure is observed” value [5] was “up to 1000 mg/day” and the half-life [5] was 3 to 6 h. For the same compound, the “effect on tumor vascular permeability in humans” value [6] was “reduce tumor vascular permeability”, the tolerability in humans [6] was “well tolerated” and the minor responses observed [7, 10] was 3 patients. The partial responses observed [7, 10] was 8 patients, the stable diseases observed [7, 10] was 2 patients and the “tolerability of the treatment” value ([7]; combined with oxaplatin, folinic acid, 5-fluorouracil every 14 days, 500, 1000 or 2000 mg/day single daily dose, 15 patients) was “well-tolerated”. The “reduction in Ki (DCE-MRI) associated with non-progressive disease” value ([8]; colorectal cancer patients with liver metastasis) was 50-60%, the “rise in plasma VEGF levels” value ([8]; responders at doses >1000 mg/day, within the first 28 days of treatment) was “up to 5 fold” and the dose-limiting toxicity ([8]; up to 2000 mg/day once daily) was “No dose-limiting toxicity”.
